Test [1] has as its system SK-BR-3 cells (HER2 overexpressing cell line). Nature of the test: SK-BR-3 cell proliferation inhibitory activity (CellTiter-Glo, 120 hours). It counts as cell-based. The essentials: (§1)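 Three independent repeats measured growth inhibition across 11 concentrations. The top final concentration was 10 μM for SK-BR-3 and BT-474, 5 μM for N-87 and 45 μM for HaCaT. Growth relative to control, read by luminescence, yielded GI50.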
For orientation: In ATP-based viability assays light output follows the ATP content of the culture.

The subject of test [2] is HaCaT cells (EGFR expressing cell line). Nature of the test: HaCaT cell proliferation inhibitory activity (CellTiter-Glo, 72 hours). In kind it is cell-based. The essentials:
as §1

Like-named read-outs stand apart in the source and are kept apart here.

The GI50 is the concentration that inhibits growth by half. `C=CC(=O)N1CC(Oc2cc3c(Nc4cc(-c5ccc6ccn(C)c6c5)ccc4OC)ncnc3cc2OC)C1` [Example 34, 1-(3-((7-methoxy-4-((2-methoxy-5-(1-methyl-1H-indol-6-yl)phenyl)amino)quinazolin-6-yl)oxy)azetidin-1-yl)prop-2-en-1-one]: the results for the GI50 in test [1] (Homo sapiens) and in test [2] (Homo sapiens) were > 1000 nM and 150 to 1000 nM, respectively.
Regarding `C=CC(=O)N1CC(Oc2cc3c(Nc4cc(-c5cccc(NC(=O)C6CC6)c5)ccc4OC)ncnc3cc2OC)C1` [Example 227, N-(3′-((6-((1-acryloylazetidin-3-yl)oxy)-7-methoxy-quinazolin-4-yl)amino)-4′-methoxy-[1,1′-biphenyl]-3-yl)cyclopropan-carboxamide], the figures for the GI50 in test [1] (Homo sapiens) and in test [2] (Homo sapiens) were 150 to 1000 nM and > 1000 nM, respectively.
As for `C=CC(=O)N1CCC(Oc2cc3c(Nc4cc(-c5cccs5)c(C)cc4OC)ncnc3cc2OC)CC1` [Example 95, 1-(4-((7-methoxy-4-((2-methoxy-4-methyl-5-(thiophen-2-yl))amino)quinazolin-6-yl)oxy)piperidin-1-yl)prop-2-en-1-one], the GI50 in test [1] (Homo sapiens) is 150 to 1000 nM; in test [2] (Homo sapiens), ≤ 150 nM.
On to `C=CC(=O)N1CC(Oc2cc3c(Nc4cc(-c5cccc(F)c5Cl)ccc4OC)ncnc3cc2OC)C1` [Example 18, 1-(3-((4-((2′-chloro-3′-fluoro-4-methoxy-[1,1′-biphenyl]-3-yl)amino)-7-methoxy-quinazolin-6-yl)oxy)azetidin-1-yl)prop-2-en-1-one], for which the GI50 in test [1] (Homo sapiens) and in test [2] (Homo sapiens) was ≤ 150 nM throughout.
As to `C=CC(=O)Nc1cc2c(Nc3cc(-c4ccco4)ccc3OC)ncnc2cc1OCCCOC` [Example 273, N-(4-((5-(furan-2-yl)-2-methoxyphenyl)amino)-7-(3-methoxypropoxy)quinazolin-6-yl)acrylamide], the GI50 in test [1] (Homo sapiens) and in test [2] (Homo sapiens) was ≤ 150 nM each time.
Consider `C=CC(=O)N1CCC(Oc2cc3c(Nc4cc(-c5ccco5)ccc4OC(F)(F)F)ncnc3cc2OC)CC1` [Example 116, 1-(4-((4-((5-(furan-2-yl)-2-(trifluoro-methoxy)phenyl)amino)-7-methoxy-quinazolin-6-yl)oxy)piperidin-1-yl)prop-2-en-1-one], for which the GI50 is 150 to 1000 nM in test [1] (Homo sapiens) and ≤ 150 nM in test [2] (Homo sapiens).
In the same order, the values of `C=CC(=O)N1CCC(Oc2cc3c(Nc4cc(-c5ccco5)ccc4OC)ccnc3cc2OC)CC1` [Example 125, 1-(4-((4-((5-(furan-2-yl)-2-methoxyphenyl)amino)-7-methoxy-quinolin-6-yl)oxy)piperidin-1-yl)prop-2-en-1-one] are 150 to 1000 nM and 150 to 1000 nM.
The corresponding values for `C=CC(=O)N1CC(Oc2cc3c(Nc4cc(-c5cccs5)c(C)cc4OC)ncnc3cc2OC)C1` [Example 52, 1-(3-((7-methoxy-4-((2-methoxy-4-methyl-5-(thiophen-2-yl)phenyl)amino)quinazolin-6-yl)oxy)azetidin-1-yl)prop-2-en-1-one] are ≤ 150 nM and ≤ 150 nM.
In the same order, the values of `C=CC(=O)N1CC(Oc2cc3c(Nc4cc(-c5ccc(Cl)cc5F)ccc4OC)ncnc3cc2OC)C1` [Example 15, 1-(3-((4-((4′-chloro-2′-fluoro-4-methoxy-[1,1′-biphenyl]-3-yl)amino)-7-methoxy-quinazolin-6-yl)oxy)azetidin-1-yl)prop-2-en-1-one] are ≤ 150 nM and ≤ 150 nM.
Turning to `C=CC(=O)N1CC(Oc2cc3c(Nc4cc(-c5ccc6occc6c5)ccc4OCC)ncnc3cc2OC)C1` [Example 57, 1-(3-((4-((5-(benzofuran-5-yl)-2-ethoxyphenyl)amino)-7-methoxy-quinazolin-6-yl)oxy)azetidin-1-yl)prop-2-en-1-one], the GI50 in test [1] (Homo sapiens) and in test [2] (Homo sapiens) was 150 to 1000 nM in each case.
For the compound `C=CC(=O)N1CCC(Oc2cc3c(Nc4cc(-c5ccnn5C)ccc4OC)ncnc3cc2OC)C1` (stereo not shown) [Example 61, 1-(3-((7-methoxy-4-((2-methoxy-5-(1-methyl-1H-pyrazol-5-yl)phenyl)amino)quinazolin-6-yl)oxy)pyrrolidin-1-yl)prop-2-en-1-one], the GI50 in test [1] (Homo sapiens) is 150 to 1000 nM; in test [2] (Homo sapiens), > 1000 nM.
In the case of `C=CC(=O)N1CCC(Oc2cc3c(Nc4cc(-c5ccco5)ccc4OC)ncnc3cc2OC)CC1C(F)(F)F` (stereo not shown) [Example 114, 1-(4-((4-((5-(furan-2-yl)-2-methoxyphenyl)amino)-7-methoxy-quinazolin-6-yl)oxy)-2-(trifluoro-methyl)piperidin-1-yl)prop-2-en-1-one], the results for the GI50 in test [1] and in test [2] were 150 to 1000 nM and ≤ 150 nM, respectively.
For `C=CC(=O)Nc1cc2c(Nc3cc(-c4ccn5ncnc5c4)ccc3OC)ncnc2cc1OC` [Example 287, N-(4-((5-([1,2,4]triazolo[1,5-a]pyridin-7-yl)-2-methoxyphenyl)amino)-7-methoxyquinazolin-6-yl)acrylamide], the GI50 is ≤ 150 nM in test [1] (Homo sapiens) and > 1000 nM in test [2] (Homo sapiens).
Take `C=CC(=O)N1CCC(Oc2cc3c(Nc4cc(-c5cccs5)ccc4OC4CCN(C)C4)ncnc3cc2OC)CC1` (stereo not shown) [Example 250, 1-(4-((7-methoxy-4-((2-((1-methylpyrrolidin-3-yl)oxy)-5-(thiophen-2-yl)phenyl)amino)quinazolin-6-yl)oxy)piperidin-1-yl)prop-2-en-1-one]: the GI50 in test [1] (Homo sapiens) and in test [2] (Homo sapiens) was ≤ 150 nM throughout.
With `C=CC(=O)N1CCC(Oc2cc3c(Nc4cc(-c5cccs5)ccc4OC4CCOCC4)ncnc3cc2OC)CC1` [Example 257, 1-(4-((7-methoxy-4-((2-((tetrahydro-2H-pyran-4-yl)oxy)-5-(thiophen-2-yl)phenyl)amino)quinazolin-6-yl)oxy)piperidin-1-yl)prop-2-en-1-one], the GI50 is 150 to 1000 nM in test [1] (Homo sapiens) and ≤ 150 nM in test [2] (Homo sapiens).
The corresponding values for `C=CC(=O)N1CCC(Nc2cc3c(Nc4cc(-c5ccco5)ccc4OC)ncnc3cc2OCCOC)CC1` [Example 262, 1-(4-((4-((5-(furan-2-yl)-2-methoxyphenyl)amino)-7-(2-methoxyethoxy)quinazolin-6-yl)amino)piperidin-1-yl)prop-2-en-1-one] are ≤ 150 nM and ≤ 150 nM.
The corresponding values for `C=CC(=O)N1CCC(Oc2cc3c(Nc4cc(-c5ccc(F)cc5F)ccc4OC)ncnc3cc2OC)CC1C(F)(F)F` (stereo not shown) [Example 165, 1-(4-((4-((2′,4′-difluoro-4-methoxy-[1,1′-biphenyl]-3-yl)amino)-7-methoxy-quinazolin-6-yl)oxy)-2-(trifluoromethyl)piperidin-1-yl)prop-2-en-1-one] are > 1000 nM and 150 to 1000 nM.
In the same order, the values of `C=CC(=O)N1CC(Oc2cc3c(Nc4cc(-c5cccc6ncsc56)ccc4OC)ncnc3cc2OC)C1` [Example 36, 1-(3-((4-((5-(benzo[d]thiazol-7-yl)-2-methoxyphenyl)amino)-7-methoxy-quinazolin-6-yl)oxy)azetidin-1-yl)prop-2-en-1-one] are 150 to 1000 nM and 150 to 1000 nM.
For the compound `C=CC(=O)N1CCC(Oc2cc3c(Nc4cc(-c5ccc(C)cc5F)ccc4OC)ncnc3cc2OC)CC1` [Example 131, 1-(4-((4-((2′-fluoro-4-methoxy-4′-methyl-[1,1′-biphenyl]-3-yl)amino)-7-methoxy-quinazolin-6-yl)oxy)piperidin-1-yl)prop-2-en-1-one], the GI50 in test [1] (Homo sapiens) and in test [2] (Homo sapiens) was 150 to 1000 nM throughout.
For the compound `C=CC(=O)N1CC(Oc2cc3c(Nc4cc(-c5cccc(C#N)c5)ccc4OC)ncnc3cc2OC)C1` [Example 12, 3′-((6-((1-acryloylazetidin-3-yl)oxy)-7-methoxy-quinazolin-4-yl)amino)-4′-methoxy-[1,1′-biphenyl]-3-carbonitrile], the GI50 in test [1] (Homo sapiens) and in test [2] (Homo sapiens) was ≤ 150 nM each time.
`C=CC(=O)N1CCC(Oc2cc3c(Nc4cc(-c5cccs5)ccc4OCC)ncnc3cc2OC)CC1` [Example 117, 1-(4-((4-((2-ethoxy-5-(thiophen-2-yl)phenyl)amino)-7-methoxy-quinazolin-6-yl)oxy)piperidin-1-yl)prop-2-en-1-one]: the GI50 in test [1] (Homo sapiens) and in test [2] (Homo sapiens) was ≤ 150 nM in each case.
Consider `C=CC(=O)N1CC(Oc2cc3c(Nc4cc(-c5cccc6ncnn56)ccc4OC)ncnc3cc2OC)C1` [Example 128, 1-(3-((4-((5-([1,2,4]triazolo[1,5-a]pyridin-5-yl)-2-methoxyphenyl)amino)-7-methoxy-quinazolin-6-yl)oxy)azetidin-1-yl)prop-2-en-1-one], for which the 50% growth inhibitory concentration (GI50) in test [1] (Homo sapiens) and in test [2] (Homo sapiens) was 150 to 1000 nM each time.
In the case of `C=CC(=O)N1CCC(Oc2cc3c(Nc4cc(-c5ccco5)ccc4OCCOC)ncnc3cc2OC)CC1` [Example 259, 1-(4-((4-((5-(furan-2-yl)-2-(2-methoxyethoxy)phenyl)amino)-7-methoxyquinazolin-6-yl)oxy)piperidin-1-yl)prop-2-en-1-one], the GI50 in test [1] (Homo sapiens) and in test [2] (Homo sapiens) was ≤ 150 nM throughout.
For `C=CC(=O)N1CCC(Oc2cc3c(Nc4cc(-c5ccc(F)cc5)ccc4OC)ncnc3cc2OC)C1` (stereo not shown) [Example 60, 1-(3-((4-((4′-fluoro-4-methoxy-[1,1′-biphenyl]-3-yl)amino)-7-methoxy-quinazolin-6-yl)oxy)pyrrolidin-1-yl)prop-2-en-1-one], the GI50 is ≤ 150 nM in test [1] (Homo sapiens) and 150 to 1000 nM in test [2] (Homo sapiens).
In the same order, the values of `C=CC(=O)N1CCC(Oc2cc3c(Nc4cc(-c5coc6ccccc56)ccc4OC)ncnc3cc2OC)CC1` [Example 73, 1-(4-((4-((5-(benzofuran-3-yl)-2-methoxyphenyl)amino)-7-methoxy-quinazolin-6-yl)oxy)piperidin-1-yl)prop-2-en-1-one] are ≤ 150 nM and ≤ 150 nM.
For the compound `C=CC(=O)N1CCC(Nc2cc3c(Nc4cc(-c5ccc(F)cc5F)ccc4OC)ncnc3cc2O[C@@H]2CCOC2)CC1` [Example 282, (R)-1-(4-((4-((2′,4′-difluoro-4-methoxy-[1,1′-biphenyl]-3-yl)amino)-7-((tetrahydrofuran-3-yl)oxy)quinazolin-6-yl)amino)piperidin-1-yl)prop-2-en-1-one], the GI50 in test [1] (Homo sapiens) and in test [2] (Homo sapiens) was ≤ 150 nM each time.
